Laboratory results published in PubChem BioAssay AID330 (DTP/NCI, 2004).
Values joined by “and” are separate entries in the source; they are usually repeats but may differ in a detail not shown here. Equal values may be shown once. Toxic doses and inconclusive results are not listed. How the source made its calls: active means survival T/C of 150% or more; inactive means T/C below 125% in these data.

Tested on: P388 leukemia ip, CD2F1 mice, survival T/C
Experiment: NCI In Vivo Anticancer Drug Screen. Data for tumor model P388 Leukemia (intraperitoneal) in CD2F1 (CDF1) mice
Conditions: endpoint: median survival time, higher = longer survival
Procedure, shortened: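 Mice carrying the transplanted tumor received test compound or vehicle. Survival was recorded in each group, and the value is the treated-group measurement divided by that of the vehicle-treated control group.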

[1] = dose: 50.0 mg/kg/injection, schedule: Q01DX005 (ip), vehicle: Klucel (hydroxypropylcellulose) (HPC)
[2] = dose: 100.0 mg/kg/injection, schedule: Q01DX005 (ip), vehicle: Klucel (hydroxypropylcellulose) (HPC)
[3] = dose: 15.0 mg/kg/injection, schedule: Q01DX005 (ip), vehicle: saline with Tween-80
[4] = dose: 60.0 mg/kg/injection, schedule: Q01DX005 (ip), vehicle: saline with Tween-80
[5] = dose: 50.0 mg/kg/injection, schedule: Q01DX005 (ip), vehicle: saline with Tween-80
[6] = dose: 100.0 mg/kg/injection, schedule: Q01DX005 (ip), vehicle: saline with Tween-80
[7] = dose: 50.0 mg/kg/injection, schedule: Q01DX009 (ip), vehicle: saline with Tween-80
[8] = dose: 100.0 mg/kg/injection, schedule: Q01DX009 (ip), vehicle: saline
[9] = dose: 200.0 mg/kg/injection, schedule: Q01DX005 (ip), vehicle: Klucel (hydroxypropylcellulose) (HPC)
[10] = dose: 100.0 mg/kg/injection, schedule: Q04DX003 (ip), vehicle: saline with Tween-80
[11] = dose: 200.0 mg/kg/injection, schedule: Q04DX003 (ip), vehicle: saline with Tween-80

Measured: T/C

O=c1c2cc3c(cc2c2cccc4ccn1c42)OCO3
inactive: dose: 4.5 mg/kg/injection, schedule: Q01DX009 (ip), vehicle: Klucel (hydroxypropylcellulose) (HPC) 105 % of control | dose: 9.0 mg/kg/injection, schedule: Q01DX009 (ip), vehicle: Klucel (hydroxypropylcellulose) (HPC) 115 % of control | dose: 18.0 mg/kg/injection, schedule: Q01DX009 (ip), vehicle: Klucel (hydroxypropylcellulose) (HPC) 107 % of control | dose: 36.0 mg/kg/injection, schedule: Q01DX009 (ip), vehicle: Klucel (hydroxypropylcellulose) (HPC) 104 % of control

CP(=Nc1ccccc1)(c1ccccc1)c1ccccc1
inactive: dose: 100.0 mg/kg/injection, schedule: Q01DX001 (ip), vehicle: saline with Tween-80 95 % of control | dose: 200.0 mg/kg/injection, schedule: Q01DX001 (ip), vehicle: saline with Tween-80 99 % of control | dose: 400.0 mg/kg/injection, schedule: Q01DX001 (ip), vehicle: saline with Tween-80 102 % of control

Cn1nc(-c2ccccc2)c(-c2ccccc2)c(C#N)c1=O
inactive: dose: 25.0 mg/kg/injection, schedule: Q04DX002 (ip), vehicle: distilled water + Tween-80 109 % of control | dose: 50.0 mg/kg/injection, schedule: Q04DX002 (ip), vehicle: distilled water + Tween-80 102 % of control | dose: 100.0 mg/kg/injection, schedule: Q04DX002 (ip), vehicle: distilled water + Tween-80 101 % of control | dose: 200.0 mg/kg/injection, schedule: Q04DX002 (ip), vehicle: distilled water + Tween-80 100 % of control

Cc1nc([N+](=O)[O-])c(Sc2nncc(-c3ccccc3)n2)n1C
inactive: [1] 111 % of control | [2] 104 % of control

C/C(=N/NS(=O)(=O)c1c(C(C)C)cc(C(C)C)cc1C(C)C)c1cccc2c1OCO2
inactive: [3] 91 % of control | dose: 30.0 mg/kg/injection, schedule: Q01DX005 (ip), vehicle: saline with Tween-80 93 % of control | [4] 87 % of control and 92 % of control

O=C1C=C(c2ccccc2)S(=O)(=O)c2c(O)cccc21
inactive: [5] 121 % of control | [6] 119 % of control | dose: 200.0 mg/kg/injection, schedule: Q01DX005 (ip), vehicle: saline with Tween-80 118 % of control

Cc1ccc2nc(=O)c3cccnc3n2c1
inactive: dose: 3.75 mg/kg/injection, schedule: Q01DX005 (ip), vehicle: saline 103 % of control | dose: 7.5 mg/kg/injection, schedule: Q01DX005 (ip), vehicle: saline 97 % of control | dose: 15.0 mg/kg/injection, schedule: Q01DX005 (ip), vehicle: saline 98 % of control

Cn1c(=O)c2c(-c3ccc(Cl)cc3)onc2n(C)c1=O
inactive: dose: 50.0 mg/kg/injection, schedule: Q01DX009 (ip), vehicle: Klucel (hydroxypropylcellulose) (HPC) 96 % of control | dose: 100.0 mg/kg/injection, schedule: Q01DX009 (ip), vehicle: Klucel (hydroxypropylcellulose) (HPC) 100 % of control

COc1ccc2c(c1)CCC1C2CCC2(C)/C(=N/O)C3OC3C12 (centres undefined)
inactive: dose: 12.5 mg/kg/injection, schedule: Q01DX009 (ip), vehicle: saline with Tween-80 94 % of control and 95 % of control | dose: 25.0 mg/kg/injection, schedule: Q01DX009 (ip), vehicle: saline with Tween-80 110 % of control and 94 % of control | [7] 101 % of control and 94 % of control | dose: 100.0 mg/kg/injection, schedule: Q01DX009 (ip), vehicle: saline with Tween-80 101 % of control and 94 % of control

N#CC1(C#N)C2CCCCC21 (centres undefined)
inactive: dose: 3.75 mg/kg/injection, schedule: Q01DX005 (ip), vehicle: saline with Tween-80 107 % of control | dose: 7.5 mg/kg/injection, schedule: Q01DX005 (ip), vehicle: saline with Tween-80 100 % of control | [3] 96 % of control

Oc1ccccc1C(Nc1nc2ccccc2s1)c1ccc2cccnc2c1O (centres undefined)
inactive: [8] 90 % of control | dose: 100.0 mg/kg/injection, schedule: Q04DX003 (ip), vehicle: saline 95 % of control | dose: 200.0 mg/kg/injection, schedule: Q01DX009 (ip), vehicle: saline 100 % of control | dose: 200.0 mg/kg/injection, schedule: Q04DX003 (ip), vehicle: saline 91 % of control | dose: 400.0 mg/kg/injection, schedule: Q01DX009 (ip), vehicle: saline 90 % of control | dose: 400.0 mg/kg/injection, schedule: Q04DX003 (ip), vehicle: saline 91 % of control

O=C(NC(C(=O)O)c1ccc(CCl)cc1)c1ccccc1 (centres undefined)
inactive: [5] 107 % of control | [6] 105 % of control

Clc1cc(Cl)c(C[N+]23CN4CN(CN(C4)C2)C3)cc1Cl
inactive: dose: 6.25 mg/kg/injection, schedule: Q01DX009 (ip), vehicle: saline 102 % of control | dose: 12.5 mg/kg/injection, schedule: Q01DX009 (ip), vehicle: saline 100 % of control and 107 % of control | dose: 25.0 mg/kg/injection, schedule: Q01DX009 (ip), vehicle: saline 106 % of control and 109 % of control | [7] 122 % of control | dose: 50.0 mg/kg/injection, schedule: Q01DX009 (ip), vehicle: saline 111 % of control and 120 % of control | [8] 117 % of control

N#CC(C(N)=O)C1(C(C#N)C(N)=O)C(=O)Nc2ccccc21 (centres undefined)
inactive: dose: 25.0 mg/kg/injection, schedule: Q01DX005 (ip), vehicle: Klucel (hydroxypropylcellulose) (HPC) 103 % of control | [1] 100 % of control | [2] 98 % of control | [9] 100 % of control

COC(=O)c1nnn(-c2ccc(Cl)cc2Cl)c1C(=O)c1ccc(Cl)c(Cl)c1
inactive: [4] 101 % of control | dose: 120.0 mg/kg/injection, schedule: Q01DX005 (ip), vehicle: saline with Tween-80 100 % of control | dose: 240.0 mg/kg/injection, schedule: Q01DX005 (ip), vehicle: saline with Tween-80 95 % of control

CC=C(/C(=C/C)c1ccc(O)cc1)c1ccc(O)cc1
inactive: dose: 66.0 mg/kg/injection, schedule: Q01DX009 (ip), vehicle: saline with Tween-80 120 % of control | [10] 100 % of control | [11] 100 % of control | dose: 400.0 mg/kg/injection, schedule: Q04DX003 (ip), vehicle: saline with Tween-80 90 % of control

CN(C)C(=O)SC1=C(c2c(Cl)cccc2Cl)C(=O)c2ccccc21
inactive: [1] 108 % of control and 112 % of control | [2] 99 % of control and 112 % of control | [9] 121 % of control and 122 % of control

O=[N+]([O-])c1ccc(Sc2ccc([N+](=O)[O-])cc2)cc1
inactive: dose: 50.0 mg/kg/injection, schedule: Q04DX003 (ip), vehicle: saline with Tween-80 90 % of control | dose: 66.0 mg/kg/injection, schedule: Q04DX003 (ip), vehicle: saline with Tween-80 90 % of control | [10] 100 % of control and 95 % of control | dose: 150.0 mg/kg/injection, schedule: Q04DX003 (ip), vehicle: saline with Tween-80 90 % of control | [11] 90 % of control
